Source: patent US8871753B2, “Macrocyclic compounds and their use as kinase inhibitors” (Incyte Corporation, priority 2008, dated 2014)
Counter-ions that a name gives are not always drawn. Like-named read-outs stand apart in the source and are kept apart here.

Assays:
Format in all cases: biochemical
[1] = molecular target: T1, human JAK1 (a.a. 837-1142) (Homo sapiens, UniProt P23458); experiment: In vitro JAK kinase assay (HTRF, phosphorylation of a biotinylated peptide), JAK1; conditions: read-out: JAK1 IC50
T1 construct: human JAK1 (a.a. 837-1142); His tag (N); made in house; host or cells: insect cells (baculovirus)
T1 sequence (P23458 849-1154): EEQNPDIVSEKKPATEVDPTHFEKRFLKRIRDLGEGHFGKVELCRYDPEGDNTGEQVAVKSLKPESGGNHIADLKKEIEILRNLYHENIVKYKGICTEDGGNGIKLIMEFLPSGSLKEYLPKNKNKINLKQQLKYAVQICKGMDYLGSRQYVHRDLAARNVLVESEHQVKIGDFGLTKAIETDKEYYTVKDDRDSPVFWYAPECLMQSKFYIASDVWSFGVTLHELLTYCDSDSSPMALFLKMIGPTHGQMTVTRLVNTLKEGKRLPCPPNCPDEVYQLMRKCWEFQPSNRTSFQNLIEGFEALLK
Procedure: (§1) The catalytic activity of JAK1, JAK2 or JAK3 was assayed by measuring the phosphorylation of a biotinylated peptide. The phosphorylated peptide was detected by homogenous time resolved fluorescence (HTRF). […] The ATP concentration in the reactions was 90 μM for JAK1, 30 μM for JAK2 and 3 μM for JAK3. Reactions were carried out at room temperature for 1 hr and then stopped with 20 μL 45 mM EDTA, 300 nM SA-APC, 6 nM Eu-Py20 in assay buffer (Perkin Elmer, Boston, Mass.). Binding to the Europium labeled antibody took place for 40 minutes and HTRF signal was measured on a Fusion plate reader (Perkin Elmer, Boston, Mass.).
(§2) The catalytic activity of JAK1, JAK2 or JAK3 was assayed by measuring the phosphorylation of a biotinylated peptide. The phosphorylated peptide was detected by homogenous time resolved fluorescence (HTRF). […] Reactions were carried out at room temperature for 1 hr and then stopped with 20 μL 45 mM EDTA, 300 nM SA-APC, 6 nM Eu-Py20 in assay buffer (Perkin Elmer, Boston, Mass.). Binding to the Europium labeled antibody took place for 40 minutes and HTRF signal was measured on a Fusion plate reader (Perkin Elmer, Boston, Mass.).

[2] = molecular target: T2, human JAK3 (a.a. 781-1124) (Homo sapiens, UniProt P52333); experiment: In vitro JAK kinase assay (HTRF, phosphorylation of a biotinylated peptide), JAK3
T2 construct: JAK3 (a.a. 781-1124); His tag (N); made in house; host or cells: insect cells (baculovirus)
T2 sequence (P52333 781-1124): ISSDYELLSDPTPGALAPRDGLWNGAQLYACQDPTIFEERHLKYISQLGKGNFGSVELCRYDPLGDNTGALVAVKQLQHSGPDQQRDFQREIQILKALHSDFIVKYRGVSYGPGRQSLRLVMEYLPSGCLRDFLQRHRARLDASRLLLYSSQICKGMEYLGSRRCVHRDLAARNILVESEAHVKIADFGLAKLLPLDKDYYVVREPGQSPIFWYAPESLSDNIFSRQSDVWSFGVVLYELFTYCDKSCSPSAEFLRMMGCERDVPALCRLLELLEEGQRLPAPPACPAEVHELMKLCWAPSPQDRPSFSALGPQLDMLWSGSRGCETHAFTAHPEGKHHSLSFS
Procedure: as §1, §2

[3] = molecular target: T3, human JAK2 (a.a. 828-1132) (Homo sapiens, UniProt O60674); experiment: In vitro JAK kinase assay (HTRF, phosphorylation of a biotinylated peptide), JAK2; conditions: Table D1
T3 construct: JAK2 (a.a. 828-1132); His tag (N); made in house; host or cells: insect cells (baculovirus)
T3 sequence (O60674 828-1132): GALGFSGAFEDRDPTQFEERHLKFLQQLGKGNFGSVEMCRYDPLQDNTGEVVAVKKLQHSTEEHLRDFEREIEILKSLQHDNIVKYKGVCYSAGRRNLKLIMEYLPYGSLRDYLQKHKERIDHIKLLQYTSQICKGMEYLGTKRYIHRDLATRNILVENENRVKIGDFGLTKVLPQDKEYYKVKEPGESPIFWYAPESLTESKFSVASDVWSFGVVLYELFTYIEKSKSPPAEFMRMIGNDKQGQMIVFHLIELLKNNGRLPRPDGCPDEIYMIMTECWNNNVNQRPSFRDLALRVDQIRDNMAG
Procedure: as §1, §2

TYK2 = TYK2 (Homo sapiens, UniProt P29597); experiment: TYK2 kinase inhibition (Table A1)
Sequence of TYK2 (P29597 whole entry): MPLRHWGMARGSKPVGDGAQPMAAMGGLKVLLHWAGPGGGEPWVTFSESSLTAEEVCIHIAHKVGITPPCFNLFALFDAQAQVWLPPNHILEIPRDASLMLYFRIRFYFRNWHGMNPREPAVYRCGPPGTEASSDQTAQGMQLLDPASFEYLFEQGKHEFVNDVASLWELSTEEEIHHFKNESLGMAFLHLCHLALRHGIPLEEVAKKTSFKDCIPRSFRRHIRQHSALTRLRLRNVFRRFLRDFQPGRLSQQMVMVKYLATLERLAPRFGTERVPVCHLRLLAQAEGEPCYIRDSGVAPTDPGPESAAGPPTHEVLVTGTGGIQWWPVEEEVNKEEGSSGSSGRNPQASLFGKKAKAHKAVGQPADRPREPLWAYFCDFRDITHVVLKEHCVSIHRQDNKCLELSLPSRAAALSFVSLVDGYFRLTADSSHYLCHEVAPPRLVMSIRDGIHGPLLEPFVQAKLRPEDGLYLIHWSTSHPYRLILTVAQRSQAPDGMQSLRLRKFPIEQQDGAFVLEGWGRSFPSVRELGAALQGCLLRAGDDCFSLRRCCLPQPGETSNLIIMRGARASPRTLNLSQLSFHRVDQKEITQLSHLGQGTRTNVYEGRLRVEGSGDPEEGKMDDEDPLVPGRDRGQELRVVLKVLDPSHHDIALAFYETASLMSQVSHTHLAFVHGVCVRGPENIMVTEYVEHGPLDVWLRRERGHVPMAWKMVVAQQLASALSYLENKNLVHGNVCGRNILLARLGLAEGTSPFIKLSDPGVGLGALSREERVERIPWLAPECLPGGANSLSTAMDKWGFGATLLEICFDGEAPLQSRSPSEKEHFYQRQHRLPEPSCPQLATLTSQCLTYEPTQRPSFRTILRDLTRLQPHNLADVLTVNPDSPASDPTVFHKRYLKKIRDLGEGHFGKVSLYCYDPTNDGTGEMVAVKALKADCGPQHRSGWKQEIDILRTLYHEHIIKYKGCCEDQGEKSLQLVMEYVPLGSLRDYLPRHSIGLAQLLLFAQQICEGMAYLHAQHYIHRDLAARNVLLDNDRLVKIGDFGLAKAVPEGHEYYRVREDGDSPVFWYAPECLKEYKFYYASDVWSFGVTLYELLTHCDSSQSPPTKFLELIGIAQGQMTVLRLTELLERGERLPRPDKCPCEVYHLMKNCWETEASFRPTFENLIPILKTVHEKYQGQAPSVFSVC

SMILES | IC50 ([1]; Table D1) [nM] | IC50 [3] [nM] | also measured
O=C(C[C@H]1CCCN(C(=O)c2ccccc2)C1)Nc1ccc2cc1CCc1cncc(c1)Nc1ncc(Cl)c(n1)N2 [Example D207, 2-[(3R)-1-Benzoylpiperidin-3-yl]-N-[6-chloro-2,4,8,18,22-pentaazatetracyclo[14.3.1.1(3,7).1(9,13)]docosa-1(20),3(22),4,6,9(21),10,12,16,18-nonaen-12-yl]acetamide bis(trifluoroacetate)] | 9.4 | 5.4 | IC50 ([2]; Table D1): 109 nM; IC50 (TYK2; Table D1): 56 nM
O=C(Nc1ccc2cc1CCc1cccc(c1)Nc1ncc(Cl)c(n1)N2)c1nc2ccccc2s1 [Example B74, N-[6-Chloro-2,4,8,22-tetraazatetracyclo[14.3.1.1(3,7).1(9,13)]docosa-1(20), 3(22),4,6,9(21),10,12,16,18-nonaen-12-yl]-1,3-benzothiazole-2-carboxamide trifluoroacetate] |  |  | IC50 ([1]; Table B1): > 1000 nM; IC50 ([2]; Table B1): > 1000 nM; IC50 (TYK2; Table B1): > 1000 nM
O=C(C[C@H]1CCN(C(=O)c2c[nH]nn2)C1)Nc1ccc2cc1CCc1cncc(c1)Nc1ncc(Cl)c(n1)N2 [Example D129-a, N-[6-Chloro-2,4,8,18,22-pentaazatetracyclo[14.3.1.1(3,7).1(9,13)]docosa-1(20),3(22),4,6,9(21),10,12,16,18-nonaen-12-yl]-2-[(3R)-1-(1H-1,2,3-triazol-4-ylcarbonyl)pyrrolidin-3-yl]acetamide bis(trifluoroacetate)] | 15 | 84 | 
O=C(C[C@H]1CCN(C(=O)Nc2ccc(F)cc2)C1)Nc1ccc2cc1CCc1cncc(c1)Nc1ncc(Cl)c(n1)N2 [Example D102, (3R)-3-(2-{[6-Chloro-2,4,8,18,22-pentaazatetracyclo[14.3.1.1(3,7).1(9,13)]docosa-1(20),3(22),4,6,9(21),10,12,16,18-nonaen-12-yl]amino}-2-oxoethyl)-N-(4-fluorophenyl)pyrrolidine-1-carboxamide bis(trifluoroacetate)] | 2.5 | 78 | 
O=C(C[C@H]1CCN(C(=O)Nc2cccnc2)C1)Nc1ccc2cc1CCc1cncc(c1)Nc1ncc(Cl)c(n1)N2 [Example D101, (3R)-3-(2-{[6-Chloro-2,4,8,18,22-pentaazatetracyclo[14.3.1.1(3,7).1(9,13)]docosa-1(20),3(22),4,6,9(21),10,12,16,18-nonaen-12-yl]amino}-2-oxoethyl)-N-pyridin-3-ylpyrrolidine-1-carboxamide tris(trifluoroacetate)] | 14 | 172 | 
O=C(C[C@H]1CCN(C(=O)Nc2ccccc2F)C1)Nc1ccc2cc1CCc1cncc(c1)Nc1ncc(Cl)c(n1)N2 [Example D104, (3R)-3-(2-{[6-Chloro-2,4,8,18,22-pentaazatetracyclo[14.3.1.1(3,7).1(9,13)]docosa-1(20),3(22),4,6,9(21),10,12,16,18-nonaen-12-yl]amino}-2-oxoethyl)-N-(2-fluorophenyl)pyrrolidine-1-carboxamide bis(trifluoroacetate)] | 8.5 | 255 | 
O=C(C[C@H]1CCN(C(=O)c2ccno2)C1)Nc1ccc2cc1CCc1cncc(c1)Nc1ncc(Cl)c(n1)N2 [Example D105, N-[6-Chloro-2,4,8,18,22-pentaazatetracyclo[14.3.1.1(3,7).1(9,13)]docosa-1(20),3(22),4,6,9(21),10,12,16,18-nonaen-12-yl]-2-[(3R)-1-(isoxazol-5-ylcarbonyl)pyrrolidin-3-yl]acetamide bis(trifluoroacetate)] | 25 | 216 | 
O=C(C[C@@H]1CCN(C(=O)c2cc[nH]n2)C1)Nc1ccc2cc1CCc1cncc(c1)Nc1ncc(Cl)c(n1)N2 [Example D134, N-[6-Chloro-2,4,8,18,22-pentaazatetracyclo[14.3.1.1(3,7).1(9,13)]docosa-1(20),3(22),4,6,9(21),10,12,16,18-nonaen-12-yl]-2-[(3S)-1-(1H-pyrazol-3-ylcarbonyl)pyrrolidin-3-yl]acetamide bis(trifluoroacetate)] | 44 | 357 | 
O=C(C[C@@H]1CCN(C(=O)Nc2cccc(F)c2)C1)Nc1ccc2cc1CCc1cncc(c1)Nc1ncc(Cl)c(n1)N2 [Example D119, (3S)-3-(2-{[6-Chloro-2,4,8,18,22-pentaazatetracyclo[14.3.1.1(3,7).1(9,13)]docosa-1(20),3(22),4,6,9(21),10,12,16,18-nonaen-12-yl]amino}-2-oxoethyl)-N-(3-fluorophenyl)pyrrolidine-1-carboxamide bis(trifluoroacetate)] | 10 | 198 | 
O=C(C[C@@H]1CCN(C(=O)c2ccno2)C1)Nc1ccc2cc1CCc1cncc(c1)Nc1ncc(Cl)c(n1)N2 [Example D120, N-[6-Chloro-2,4,8,18,22-pentaazatetracyclo[14.3.1.1(3,7).1(9,13)]docosa-1(20),3(22),4,6,9(21),10,12,16,18-nonaen-12-yl]-2-[(3S)-1-(isoxazol-5-ylcarbonyl)pyrrolidin-3-yl]acetamide bis(trifluoroacetate)] | 20 | 397 | 
Cc1oncc1C(=O)N1CC[C@H](CC(=O)Nc2ccc3cc2CCc2cncc(c2)Nc2ncc(Cl)c(n2)N3)C1 [Example D108, N-[6-Chloro-2,4,8,18,22-pentaazatetracyclo[14.3.1.1(3,7).1(9,13)]docosa-1(20),3(22),4,6,9(21),10,12,16,18-nonaen-12-yl]-2-{(3R)-1-[(5-methylisoxazol-4-yl)carbonyl]pyrrolidin-3-yl}acetamide bis(trifluoroacetate)] | 62 | 246 | 
c1cc2cc(c1)Nc1ccnc(n1)Nc1cncc(c1)CC2 [Example D217, 2,4,8,18,22-Pentaazatetracyclo[14.3.1.1(3,7).1(9,13)]docosa-1(20),3(22),4,6,9(21),10,12,16,18-nonaene bis(trifluoroacetate)] | 53 | 103 | IC50 ([2]; Table D1): > 400 nM
N#Cc1ccc(NC(=O)N2CC[C@H](CC(=O)Nc3ccc4cc3CCc3cncc(c3)Nc3ncc(Cl)c(n3)N4)C2)cc1 [Example D98, (3R)-3-(2-{[6-Chloro-2,4,8,18,22-pentaazatetracyclo[14.3.1.1(3,7).1(9,13)]docosa-1(20),3(22),4,6,9(21),10,12,16,18-nonaen-12-yl]amino}-2-oxoethyl)-N-(4-cyanophenyl)pyrrolidine-1-carboxamide bis(trifluoroacetate)] | 12 | 122 | 
O=C(C[C@@H]1CCN(C(=O)c2cn[nH]c2)C1)Nc1ccc2cc1CCc1cncc(c1)Nc1ncc(Cl)c(n1)N2 [Example D133, N-[6-Chloro-2,4,8,18,22-pentaazatetracyclo[14.3.1.1(3,7).1(9,13)]docosa-1(20),3(22),4,6,9(21),10,12,16,18-nonaen-12-yl]-2-[(3S)-1-(1H-pyrazol-4-ylcarbonyl)pyrrolidin-3-yl]acetamide bis(trifluoroacetate)] | 73 | 900 | 
O=C(C[C@@H]1CCCN(c2nc3ccccc3s2)C1)Nc1ccc2cc1CCc1cncc(c1)Nc1ncc(Cl)c(n1)N2 [Example D211, 2-[(3S)-1-(1,3-Benzothiazol-2-yl)piperidin-3-yl]-N-[6-chloro-2,4,8,18,22-pentaazatetracyclo[14.3.1.1(3,7).1(9,13)]docosa-1(20),3(22),4,6,9(21),10,12,16,18-nonaen-12-yl]acetamide tris(trifluoroacetate)] | 4.2 | 160 | 
